From US12486294B2, “Radioisotope labeled compound for imaging or treatment of prostate cancer” (SEOUL NATIONAL UNIVERSITY R&DB FOUNDATION, priority 2019, dated 2025)

Assays:
PSMA = PSMA (Homo sapiens, UniProt Q04609); conditions: 22Rv1 cells, 1 hour at 37° C., non-specific binding with 250 μM PMPA, nonlinear regression
Protocol: The PSMA-positive prostate cancer cell line 22Rv1 was placed in a 24-well plate at the density of 1×10^5 cells/well, followed by culture in a 37° C., 5% CO2 incubator for 24 hours. […] 0.5 mL of the diluted solution was taken and put into cultured cells and incubated in a 37° C., 5% CO2 incubator for 1 hour. After removing the culture medium, the cells were washed twice with fresh culture medium, 1 mL of 0.5% sodium dodecyl sulfate (SDS) dissolved in phosphate buffered saline was added thereto, gently shaken to dissolve, and then transferred to a 5 mL disposable plastic test tube. The radioactivity of the tube was measured using a gamma counter. […] Specific binding was obtained by subtracting non-specific binding from total binding, and a saturation curve was drawn. […] From these saturation curves, the dissociation constant, Kd, was calculated by nonlinear regression using GraphPad Prism 7 program.

[1] = Stability test in human serum; assay type: in vitro ADME; conditions: 36.5° C., after 2 hours
Protocol: The stability test in human serum is to test the stability when it comes into contact with human serum after administration to the human body, and the stability in the body is partly tested in vitro.
In order to examine the stability of [^99mTc]Tc-15 according to the present invention in human serum, 3.7 MBq of [^99mTc]Tc-15 (100 μL) prepared in Example 3 was added to 1 mL of human serum, mixed well, and then cultured at 36.5° C. with stirring. After 2 hours, the reaction mixture was analyzed by ITLC.
In order to examine the stability of [^99mTc]Tc-16 according to the present invention in human serum, 3.7 MBq of [^99mTc]Tc-16 (100 μL) prepared in Example 4 was added to 1 mL of human serum, mixed well, and then cultured at 36.5° C. with stirring. After 2 hours, the reaction mixture was analyzed by ITLC.

[2] = test system: PSMA-expressing 22Rv1 tumor; test: SPECT imaging in 22Rv1 cell-transplanted mice; assay type: in vivo, BALB/c nude mouse; conditions: for tumor intake in SPECT image: intravenous injection
Protocol: Specifically, 0.1 mL of RPMI1640 culture medium containing 5×10^6 22 Rv1 cells was subcutaneously injected into the right back of a 4-week-old male BALE/c nude mouse. After 2 to 3 weeks, the present inventors confirmed that the tumor tissue had reached an appropriate size and used it in the experiment. For animal injection, [^99mTc]Tc-15 and [^99mTc]Tc-16 were each diluted in saline for injection to a concentration of 10.2 MBq/100 μL. […]

[3] = test system: PSMA-targeted 22Rv1 tumor; test: In vivo distribution test in cancer transplantation animals; set-up: species or system BALB/c male nude mice
Protocol: Specifically, 0.1 mL of RPMI1640 culture medium containing 5×10^6 22 Rv1 cells was subcutaneously injected into the left flank of a 4-week-old male BALB/c nude mouse. After 2 to 3 weeks, the present inventors confirmed that the tumor tissue had reached an appropriate size and used it in the experiment. For animal injection, [^99mTc]Tc-15 prepared in Example 3 and [^99mTc]Tc-16 prepared in Example 4 were each diluted in saline for injection to a concentration of 0.74 MBq/100 μL. Each of these was injected into the tail vein of the mice transplanted with cancer cells, and after 1 hour and 4 hours, cancer, blood, muscle, heart. Lung, liver, spleen, stomach, small intestine, kidney, bone, and the like were collected and their weight and radioactivity were measured.

[4] = 1 h Blockade, co-injection of 2-PMPA (100 μg)
[5] = 4 h Blockade, co-injection of 2-PMPA (100 μg)

Sequence of PSMA (Q04609 whole entry): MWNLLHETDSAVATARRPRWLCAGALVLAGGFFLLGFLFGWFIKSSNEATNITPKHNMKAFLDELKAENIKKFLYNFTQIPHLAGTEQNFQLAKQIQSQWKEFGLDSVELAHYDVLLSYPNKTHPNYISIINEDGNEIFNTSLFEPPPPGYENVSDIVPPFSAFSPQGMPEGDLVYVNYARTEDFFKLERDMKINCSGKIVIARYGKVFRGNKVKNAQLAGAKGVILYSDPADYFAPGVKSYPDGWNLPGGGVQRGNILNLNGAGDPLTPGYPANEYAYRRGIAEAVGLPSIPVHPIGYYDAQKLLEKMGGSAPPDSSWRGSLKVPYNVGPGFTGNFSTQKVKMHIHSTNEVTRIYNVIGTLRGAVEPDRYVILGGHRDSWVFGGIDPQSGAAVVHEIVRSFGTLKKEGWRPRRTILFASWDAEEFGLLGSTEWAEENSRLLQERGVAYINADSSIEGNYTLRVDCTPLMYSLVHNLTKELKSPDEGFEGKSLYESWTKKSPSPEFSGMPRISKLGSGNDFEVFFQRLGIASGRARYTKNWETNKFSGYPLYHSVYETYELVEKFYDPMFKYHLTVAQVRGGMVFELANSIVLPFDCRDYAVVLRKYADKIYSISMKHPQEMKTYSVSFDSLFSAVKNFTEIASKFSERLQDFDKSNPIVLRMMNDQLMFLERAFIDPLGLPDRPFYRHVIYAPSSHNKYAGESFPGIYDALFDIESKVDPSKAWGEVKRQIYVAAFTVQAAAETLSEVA

[99Tc+].[C-]#[N+]CCC(=O)NCCCCCC(=O)NC(Cc1ccccc1)C(=O)N[C@H](Cc1ccccc1)C(=O)NCCCCCC(=O)NCCCCC(NC(=O)N[C@@H](CCC(=O)O)C(=O)O)C(=O)O.[C-]#[N+]CCC(=O)NCCCCCC(=O)NC(Cc1ccccc1)C(=O)N[C@H](Cc1ccccc1)C(=O)NCCCCCC(=O)NCCCCC(NC(=O)N[C@@H](CCC(=O)O)C(=O)O)C(=O)O.[C-]#[N+]CCC(=O)NCCCCCC(=O)NC(Cc1ccccc1)C(=O)N[C@H](Cc1ccccc1)C(=O)NCCCCCC(=O)NCCCCC(NC(=O)N[C@@H](CCC(=O)O)C(=O)O)C(=O)O.[C-]#[O+].[C-]#[O+].[C-]#[O+] (stereo partly shown) [[^99mTc]Tc-16]
Kd (PSMA): 0.2 nM
stability in human serum (ITLC) [1]: most of them were present as [^99mTc]Tc-16 and hardly separated as ^99mTc
tumor intake in SPECT image with PSMA blocked ([2]; MIP-1072 injected to selectively block PSMA): tumor intake was not observed
tumor intake in SPECT image ([2]; 1 hour after the injection): the increase in radioactivity was evident
tumor intake in SPECT image ([2]; 4 hours after the injection): the intake was more distinct
distribution observed in SPECT image ([2]; tail vein injection, 1 hour and 3 hours): not only excreted by the kidney but also ingested into the prostate cancer tissue
intake in prostate cancer in SPECT image, compared between the two labeled compounds ([2]; tail vein injection, FIGS. 4A and 5A): higher intake in prostate cancer
In vivo distribution, Blood ([3]; 1 h): 0.42 % ID/g
In vivo distribution, Bone ([3]; 1 h): 0.63 % ID/g
In vivo distribution, Heart ([3]; 1 h): 0.36 % ID/g
In vivo distribution, Intestine ([3]; 1 h): 0.47 % ID/g
In vivo distribution, Kidney ([3]; 1 h): 24.66 % ID/g
In vivo distribution, Liver ([3]; 1 h): 1.17 % ID/g
In vivo distribution, Lung ([3]; 1 h): 0.52 % ID/g
In vivo distribution, Muscle ([3]; 1 h): 0.13 % ID/g
In vivo distribution, Spleen ([3]; 1 h): 3.40 % ID/g
In vivo distribution, Stomach ([3]; 1 h): 0.85 % ID/g
In vivo distribution, Tail ([3]; 1 h): 0.49 % ID/g
In vivo distribution, Tumor ([3]; 1 h): 1.87 % ID/g
Tumor/blood ([3]; 1 h): 4.43
Tumor/kidney ([3]; 1 h): 0.08
Tumor/liver ([3]; 1 h): 1.60
Tumor/muscle ([3]; 1 h): 14.05
In vivo distribution, Blood [3, 4]: 0.75 % ID/g
In vivo distribution, Bone [3, 4]: 1.16 % ID/g
In vivo distribution, Heart [3, 4]: 0.48 % ID/g
In vivo distribution, Intestine [3, 4]: 0.85 % ID/g
In vivo distribution, Kidney [3, 4]: 5.66 % ID/g
In vivo distribution, Liver [3, 4]: 1.95 % ID/g
In vivo distribution, Lung [3, 4]: 1.63 % ID/g
In vivo distribution, Muscle [3, 4]: 0.22 % ID/g
In vivo distribution, Spleen [3, 4]: 0.40 % ID/g
In vivo distribution, Stomach [3, 4]: 1.04 % ID/g
In vivo distribution, Tail [3, 4]: 1.18 % ID/g
In vivo distribution, Tumor [3, 4]: 0.45 % ID/g
Tumor/blood [3, 4]: 0.61
Tumor/kidney [3, 4]: 0.08
Tumor/liver [3, 4]: 0.23
Tumor/muscle [3, 4]: 2.16
In vivo distribution, Blood ([3]; 4 h): 0.17 % ID/g
In vivo distribution, Bone ([3]; 4 h): 1.04 % ID/g
In vivo distribution, Heart ([3]; 4 h): 0.25 % ID/g
In vivo distribution, Intestine ([3]; 4 h): 1.48 % ID/g
In vivo distribution, Kidney ([3]; 4 h): 39.65 % ID/g
In vivo distribution, Liver ([3]; 4 h): 0.69 % ID/g
In vivo distribution, Lung ([3]; 4 h): 0.36 % ID/g
In vivo distribution, Muscle ([3]; 4 h): 0.07 % ID/g
In vivo distribution, Spleen ([3]; 4 h): 3.44 % ID/g
In vivo distribution, Stomach ([3]; 4 h): 0.42 % ID/g
In vivo distribution, Tail ([3]; 4 h): 0.48 % ID/g
In vivo distribution, Tumor ([3]; 4 h): 2.83 % ID/g
Tumor/blood ([3]; 4 h): 16.70
Tumor/kidney ([3]; 4 h): 0.07
Tumor/liver ([3]; 4 h): 4.17
Tumor/muscle ([3]; 4 h): 40.43
In vivo distribution, Blood [3, 5]: 0.15 % ID/g
In vivo distribution, Bone [3, 5]: 0.47 % ID/g
In vivo distribution, Heart [3, 5]: 0.11 % ID/g
In vivo distribution, Intestine [3, 5]: 1.26 % ID/g
In vivo distribution, Kidney [3, 5]: 3.59 % ID/g
In vivo distribution, Liver [3, 5]: 1.33 % ID/g
In vivo distribution, Lung [3, 5]: 0.45 % ID/g
In vivo distribution, Muscle [3, 5]: 0.05 % ID/g
In vivo distribution, Spleen [3, 5]: 0.20 % ID/g
In vivo distribution, Stomach [3, 5]: 0.23 % ID/g
In vivo distribution, Tail [3, 5]: 0.53 % ID/g
In vivo distribution, Tumor [3, 5]: 0.39 % ID/g
Tumor/blood [3, 5]: 2.67
Tumor/kidney [3, 5]: 0.11
Tumor/liver [3, 5]: 0.30
Tumor/muscle [3, 5]: 8.44
intake when PSMA was blocked with PMPA ([3]; summary of Tables 2 and 3): the intake was decreased
tissue with highest intake ([3]; summary of Tables 2 and 3): the highest intake in the kidney
